Measured values reported in paper PMC4462581 (PLoS ONE, 2015).

Experiments:
[1] = system: BoNT/A intoxication of human ES-MNs (SNAP-25 cleavage); format: cell-based
[2] = system: BoNT/E intoxication of human ES-MNs (SNAP-25 cleavage); format: cell-based
[3] = system: BoNT/A intoxication of mouse ES-MNs (SNAP-25 cleavage); format: cell-based
BoNT/A LC = BoNT/A LC (Clostridium botulinum, UniProt P0DPI0); assay: biochemical
[4] = system: BoNT/A intoxication of mouse ES-MNs (SNAP-25 cleavage); format: cell-based; remark: listed apart in the source

Chain of BoNT/A LC (P0DPI0 2-448 limits assumed): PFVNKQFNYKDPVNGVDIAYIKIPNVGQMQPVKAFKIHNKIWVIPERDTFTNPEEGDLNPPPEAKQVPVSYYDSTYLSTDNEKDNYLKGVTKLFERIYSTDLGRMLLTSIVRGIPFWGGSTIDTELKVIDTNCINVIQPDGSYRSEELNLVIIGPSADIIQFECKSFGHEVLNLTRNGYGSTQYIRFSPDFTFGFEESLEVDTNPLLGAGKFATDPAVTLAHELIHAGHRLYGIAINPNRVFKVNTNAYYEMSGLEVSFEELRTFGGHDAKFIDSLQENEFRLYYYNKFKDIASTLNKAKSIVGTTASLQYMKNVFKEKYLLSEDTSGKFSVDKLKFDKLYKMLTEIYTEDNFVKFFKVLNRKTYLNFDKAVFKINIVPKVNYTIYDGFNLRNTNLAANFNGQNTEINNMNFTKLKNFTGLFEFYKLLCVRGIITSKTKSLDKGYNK

Row | SMILES | Protection of SNAP-25 against BoNT/A, pre-intoxication, dose dependence [1] | Protection of SNAP-25 against BoNT/E, 30 min post-intoxication [2] | Protection of SNAP-25 against BoNT/E, 60 min post-intoxication [2] | Protection against BoNT/A (SNAP-25 cleavage), library screen outcome [3] | IC50 (BoNT/A LC) | Protection of SNAP-25 against BoNT/A, western blot [4] | Antagonism of BoNT/A mediated SNAP-25 cleavage, 60 min post-intoxication [1]
1 | CO/C1=C\C(C)=C\[C@@H](C)[C@@H](O)[C@@H](C)C/C(C)=C/C=C/[C@H](OC)[C@@H]([C@@H](C)[C@@H](O)[C@H](C)[C@@]2(O)C[C@@H](O)[C@H](C)[C@@H](C(C)C)O2)OC1=O [bafilomycin] | dose-dependent protection | – | – | – | – | – | –
2 | O=C1C(Cl)=C(NCCN2CCOCC2)C(=O)c2ncccc21 [NSC 663284] | – | statistically significant protection | statistically significant protection | identified as potential BoNT/A intoxication inhibitors | > 20 µM | – | –
3 | CC1(C)C(=O)N=C2C1=C(O)C(=O)c1ccccc12 [BVT 948] | – | efficacious | – | identified as potential BoNT/A intoxication inhibitors | > 20 µM | – | –
4 | O=C1C(=O)c2ccccc2-c2ccccc21 [9,10-Phenanthrenequinone] | – | statistically significant protection | statistically significant protection | identified as potential BoNT/A intoxication inhibitors | > 20 µM | – | –
5 | N=C(N)c1ccc(OCCCCCOc2ccc(C(=N)N)cc2)cc1 [Pentamidine] | qualitatively lower level of SNAP-25 cleavage protection | not statistically significant | not statistically significant | identified as potential BoNT/A intoxication inhibitors | > 20 µM | qualitatively lower level of SNAP-25 cleavage protection | trended toward, but did not reach, statistical significance
